Three molecules from patent publication US11007250B2, “Methods and kits for treating pain” (Duke University, priority 2017, dated 2021) can be followed below.

The subject of one experiment is naive mice. Description: Basal pain in naive mice (von Frey test, spontaneous pain). It counts as in vivo, mouse.
Experiment [1] relates to dissociated small-diameter mouse DRG neurons. The experiment can be described thus: Whole-cell patch clamp recordings in dissociated mouse DRG neurons. It counts as cell-based. The following applies: SSG 11 μM. As to the method:
Whole-cell patch clamp recordings in dissociated mouse DRG neuron. DRGs were aseptically removed from 4-7 week-old mice and digested with collagenase (0.2 mg/ml, Roche)/dispase-II (3 mg/ml, Roche) for 120 min. Cells were placed on glass cover slips coated with poly-D-lysine and grown in a neurobasal defined medium (10% fetal bovine serum and 2% B27 supplement) at 37° C. with 5% CO2/95% air for 24 h before experiments. Whole-cell voltage clamp recordings were performed at room temperature to measure transient sodium currents and action potentials, respectively, with an EPC10 amplifier (HEKA) and an Axopatch-200B amplifier with a Digidata 1440A (Axon Instruments) (Xu, Z Z, et al. 2015). The patch pipettes were pulled from borosilicate capillaries (Chase Scientific Glass Inc.). When filled with the pipette solution, the resistance of the pipettes was 4-5 MQ. The recording chamber (300 μl) was continuously superfused (3-4 ml/min). Series resistance was compensated for (>80%), and leak subtraction was performed. Data were low-pass-filtered at 2 KHz, sampled at 10 KHz. The pClamp10 (Axon Instruments) software was used during experiments and analysis. For sodium current recording, pipette solution contained (in mM): CsCl 130, NaCl 9, MgCl2 1, EGTA 10, HEPES 10, adjusted to pH 7.4 with CsOH. […] RMP was measured without a current injection.

In experiment [2] the test system is phosphorylation of SHP-1 (pSHP-1). The experiment can be described thus: pSHP-1 immunostaining in mouse DRG neurons. Type of experiment: cell-based. The note with it: dissociated DRG neurons; PD-L1 10 ng/ml, SSG 11 μM.
Experiment [3] concerns TREK2 in CHO cells co-expressing PD-1 and TREK2. Description: Patch clamp recordings in transfected CHO cells. Type of experiment: cell-based. The following applies: SSG. As to the method:
CHO cell culture, transfection and electrophysiology. CHO cell line was purchased from Duke Cell Culture Facility. Cells were cultured in high glucose (4.5 g/L) Dulbecco's Modified Eagle's Medium containing 10% (v/v) fetal bovine serum (Gibco). Transfection (1 μg cDNA) was performed with Lipofectamine™ 2000 Reagent (Invitrogen) at 70% confluency and the transfected cells were cultured in the same growth medium for 48 h before electrophysiological and biochemical studies. PD1/PDCD1 cDNA construct (SC117011, NM_005018) and TREK2/KCNK10 cDNA construct (SC110477, NM_021161) were purchased from Origene Technologies.
Whole-cell patch clamp recordings in transfected CHO cells were conducted at room temperature using patch pipettes with resistances of 5-6 MD. The recording chamber was continuously superfused (3-4 ml/min). The data were acquired at a rate of 10 kHz and filtered at 3 kHz using an EPC-10 amplifier (HEKA, Germany). Pipette solution contained (in mM): K-gluconate 126, NaCl 10, MgCl2 1, EGTA 10, NaATP 2, and MgGTP 0.1, adjusted to pH 7.3 with KOH. The external solution was composed of (in mM): NaCl 140, KCl 5, CaCl2 2, MgCl2 1, HEPES 10, glucose 10, adjusted to pH 7.4 with NaOH. […] In current-clamp experiments, the resting membrane potential was measured without any membrane potential compensation.
A general note: Patch clamp records ionic current or voltage across a cell membrane.

The test system of experiment [4] is small-diameter human DRG neurons. Description: Patch clamp recordings in dissociated human DRG neurons. It counts as cell-based. The note with it: SSG 11 μM. As to the method: Primary cultures and patch clam recordings in human DRG neurons. Non-diseased human DRGs were obtained from donors through NDRI with permission of exemption from Duke IRB. Postmortem L3-L5 DRGs were dissected from 5 male donors at the age of 27, 31, 43, 54, and 67 and delivered in ice-cold culture medium to the laboratory at Duke University within 24-72 hours of death. Upon the delivery, DRGs were rapidly dissected from nerve roots and minced in a calcium-free HBSS (Gibco). Human DRG cultures were prepared as previously reported (Xu, Z Z, et al. 2015). DRGs were digested at 37° C. in humidified O2 incubator for 120 min with collagenase Type II (Worthington, 285 units/mg, 12 mg/ml final concentration) and dispase II (Roche, 1 unit/mg, 20 mg/ml) in PBS with 10 mM HEPES, pH adjusted to 7.4 with NaOH. DRGs were mechanically dissociated using fire-polished pipettes, filtered through a […] nylon mesh and centrifuged (500×g for 5 min). The pellet was resuspended, plated on 0.5 mg/ml poly-D-lysine-coated glass coverslips, and cells were grown in Neurobasal medium supplemented with 10% FBS, 2% B-27 supplement, 1% N-2 supplement, and 1% penicillin/streptomycin. Whole-cell patch clamp recordings in small-diameter DRG neurons (<55 μm) were conducted at room temperature using patch pipettes with resistances of 2-3 MD. […] The resting membrane potential was measured without a current injection.

A further experiment deals with melanoma-bearing mice. Description: Mouse melanoma model: spontaneous pain, von Frey test, CPP. It counts as in vivo. The note with it: for spontaneous pain (licking/flinching) in melanoma-bearing mice: SSG 5 μg i.pl.
A further experiment has as its system mice. Description: Tail-flick and hot-plate tests of morphine antinociception. Type of experiment: in vivo, mouse. The following applies: morphine 10 mg/kg s.c. As to the method:
Tail-flick test. All animals were habituated to testing environment for at least 2 days before baseline testing. Mice were gently held by a hand with a terry glove and with tails exposed. The distal 3 cm of the tail was immersed into the 50° C. hot water. The tail-flick latency was the time required for a mouse to flick or remove its tail out of the water. A maximum cut-off value of 15 seconds was set to avoid thermal injury. Tail-flick latency was determined both before and after drug injection. Data are expressed as the maximum possible effect (MPE) calculated as MPE (%)=100×[(postdrug response baseline response)/(cutoff response−baseline response)]. The MPE (%) data from each animal were converted to area under the curve (AUC).
Hot-plate test. All animals were habituated to testing environment for at least 2 days before baseline testing. […] A maximum cut-off value of 40 seconds was set to avoid tissue injury. Data are expressed as the maximum possible effect (MPE) calculated as MPE (%)=100×[(postdrug response−baseline response)/(cutoff response−baseline response)]. The MPE (%) data from each animal were converted to area under the curve (AUC).
(Hot-plate and tail-flick tests time the reaction to a heat stimulus.)

The subject of experiment [5] is small-diameter neurons of whole-mount DRG. Description: Whole-cell patch clamp recordings in whole mount DRGs ex vivo. Type of experiment: cell-based, mouse. The following applies: WT whole mount DRG; sPD-1 30 ng/ml, Nivolumab 300 ng/ml. On the procedure:
Whole-cell patch clamp recordings in whole mount DRGs of mice ex vivo. L4-L5 DRGs were carefully removed 4 days after sham surgery or CCI surgery and placed in cold oxygenated ACSF. The connective tissue was gently removed under a microscope and the ganglia were digested with a mixture of 0.4 mg/mL trypsin (Sigma) and 1.0 mg/ml type-A collagenase (Sigma) for 30 min at 37° C. The intact ganglia were then incubated in ACSF oxygenated with 95% O2 and 5% CO2 at 28° C. for at least 1 h before transferring them to the recording chamber. DRG neurons were visualized with a 40× water-immersion objective using a BX51WI microscope (Olympus). Whole-cell current and voltage recordings were acquired with an Axon700B amplifier. Patch pipettes (4-7 MO) were pulled from borosilicate glass capillaries on P-97 puller. The recording chamber (300 μl) was continuously superfused (3-4 ml/min). Series resistance was compensated for (>80%), and leak subtraction was performed. The pipette solution contained (in mM): 140 KCl, 2 MgCl2, 10 Hepes, 2 Mg-ATP, pH 7.4. Osmolarity was adjusted to 290-300 mOsm. Data was acquired with a Digidata 1322A acquisition system (molecular devices) using pCLAMP 9.0 software. Signals were low-pass filtered at 5 kHz, sampled at 10 kHz and analyzed offline.

Experiment [6] has as its system lamina 110 neurons in spinal cord slices. The experiment can be described thus: Patch clamp recordings of sEPSCs in spinal cord slices. It counts as cell-based, mouse. The note with it: PD-L1 30 ng/ml, sPD-1 30 ng/ml perfusion; Nivolumab 300 ng/ml, 3 h.
The test system of experiment [7] is T cell, macrophage and inflammatory cytokine marker mRNA. Description: Quantitative real-time RT-PCR of immune markers in melanoma-bearing hindpaw skin. The note with it: 3 h after sPD-1 treatment (5 μg, i.pl.), MCI-4w. On the technique in general: Quantitative PCR measures a nucleic acid by following its amplification.
The mark [8] stands for this setting: MCI-4w, sPD-1 5 μg i.pl., siRNA 2 μg peri-sciatic, Nivolumab 3-10 mg/kg i.v., RMP1-14 10 mg/kg i.v.
[9] abbreviates: i.pl., sPD-1 5 μg, RMP1-14 5 μg, Nivolumab 10 μg.

Regarding `O.O.O.O.O.O.O.O.O.O=C([O-])[C@@H]1[O][Sb]2([O-])([O][Sb]34([OH])[O][C@H]([C@H](O)CO)[C@H]([O]3)[C@H](C(=O)[O-])[O]4)[O][C@H]([C@H](O)CO)[C@@H]1[O]2.[Na+].[Na+].[Na+]` [SSG, sodium stibogluconate], in the experiment with naive mice (i.pl. SSG plus PD-L1, naive mice), the “effect on analgesic effect of PD-L1” value is “abolished”. Also, the “effect on PD-L1-induced inhibition of sodium currents” value in [1] is reported as “partially blocked”; in experiment [4] it was “completely blocked”. Further, the “effect on PD-L1-induced SHP-1 phosphorylation” value in experiment [2] is recorded as “blocked”. Further, the “effect on PD-L1-induced RMP change” value in [3] (CHO cells co-expressing PD-1 and TREK2) is “blocked”. Besides, in experiment [3] (PD-1/TREK2 co-expressing CHO cells), the “effect on PD-L1 potentiation of TREK2 currents and Erev shift” value was “abolished”. Moreover, the “spontaneous pain (licking/flinching) in melanoma-bearing mice” value in the experiment with melanoma-bearing mice (setting [8]) was “elicited spontaneous pain”.

In the case of `CN1CC[C@]23c4c5ccc(O)c4O[C@H]2[C@@H](O)C=C[C@H]3[C@H]1C5` [morphine], the “analgesic effect of morphine after human IgG” value with mice (human IgG i.v.) is reported as “typical analgesic effect”. In addition, the “analgesic effect of morphine in Pd1−/− mice compared to WT” value in the experiment on mice is “reduced analgesic (antinociceptive) effect”.

“sPD-1: soluble PD-1 used to neutralize PD-L1; Mouse PD-1 from R&D (1021-PD-100)”: in the experiment with naive mice (setting [9]), the “duration of mechanical allodynia in naive mice” value was determined as 3 h and the “mechanical allodynia in naive mice” value is reported as “transient mechanical allodynia”. Moreover, the “spontaneous pain in naive mice” value with naive mice (sPD-1 5 μg i.pl.) was “without causing spontaneous pain”. The “firing rate of action potentials” value in [5] is reported as “increased the firing rate”. In [6], the “amplitude of spontaneous EPSCs (sEPSCs)” value was “not amplitude” and the “frequency of spontaneous EPSCs (sEPSCs)” value is “increased sEPSC frequency”. For the same molecule, in the experiment with melanoma-bearing mice (setting [8]), the “mechanical allodynia in melanoma-bearing mice” value was “induced mechanical allodynia” and the “spontaneous pain (licking/flinching) in melanoma-bearing mice” value is given as “marked spontaneous pain”. Also, the “conditioned place preference (CPP), ongoing pain” value in the experiment with melanoma-bearing mice (i.pl. sPD-1, two-chamber test) is “marked CPP”. The “onset of spontaneous pain after injection” value in the experiment on melanoma-bearing mice (sPD-1 5 μg i.pl., MCI-4w) lay in the range of 10 to 30 min. The “mRNA levels of immune/inflammatory markers in hindpaw skin” value in experiment [7] is on record as “did not alter”.
